We go through eight compounds from patent publication US6140330A, “Thiazole derivative” (Otsuka Pharmaceutical Company, Limited, priority 1996, dated 2000).

A short description of experiment [1]: Rat Kidney Ischemic Re-perfusion Model. It counts as in vivo. The conditions noted are these: for amount of creatine in the blood / amount of urea nitrogen in the blood: in mg/dL (unit assumed). The procedure: (4) Rat Kidney Ischemic Re-perfusion Model
The right kidney of a SD male rat was taken out, and the left kidney artery was clumped, and then, re-perfused to give a kidney ischemic re-perfusion model. The effect of the compounds of Examples 71, 89 and 100 on the kidney ischemic re-perfusion model was estimated.
The compound of Example 71 was administered intravenously to the rat at a dose of 3 mg/kg 5 minutes before the ischemic. Twenty-four hours later, the blood was collected from the tail vein, and the amounts of creatine and urea nitrogen were determined. The amount of creatine in the blood was 2.19±0.21 (mean±s.e.) in the control group; 1.4±0.11 (mean±s.e.) in the group treated with the compound of Example 71, and the amount of urea nitrogen in the blood was 78.8±5.6 (mean s.e.) in the control group, and 54.1±5.0 (mean±s.e.) in the group treated with the compound of Example 71.
The compound of Example 89 was administered intravenously to the rat at a dose of 3 mg/kg 5 minutes before the ischemic and the re-perfusion. Forty-eight hours later, the blood was collected from the tail vein, and the amounts of creatine and urea nitrogen were determined. The amount of creatine in the blood was 4.31±0.53 (mean±s.e.) in the control group; 2.34±0.46 (mean±s.e.) in the group treated with the compound of Example 89, and the amount of urea nitrogen in the blood was 155.1±15.4 (mean±s.e.) in the control group, and 99.1±16.0 (mean±s.e.) in the group treated with the compound of Example 89.
The compound of Example 100 was administered orally to the rat at a dose of 30 mg/kg one hour before the ischemic. Forty-eight hours later, the blood was collected from the tail vein, and the amounts of creatine and urea nitrogen were determined. The amount of creatine in the blood was 2.48±0.59 (mean±s.e.) in the control group; 1.53±0.20 (mean±s.e.) in the group treated with the compound of Example 100, and the amount of urea nitrogen in the blood was 91.3±20.1 (mean±s.e.) in the control group, and 63.1±10.3 (mean±s.e.) in the group treated with the compound of Example 100.

In experiment [2] the target is protein kinase C (PKC). Nature of the experiment: Protein Kinase C (PKC) Inhibitory Activity. The experiment is classed as biochemical. The conditions noted are these: rat brain PKC, H1 histone substrate, 10 μM [γ-32P]ATP, 30° C., 30 minutes. As to the method:
(1) Protein Kinase C (PKC) Inhibitory Activity
Method for determining PKC activity:
The purification of PKC using rat's brain soluble fractions was carried out by a method of Kikkawa et al. (cf. Ushio Kikkawa, Yoshimi Takai, Ryoji Minakuchi, Sinichi Inohara and Yasutomi Nishizuka: The Journal of Biological Chemistry, vol. 257, No. 22, pp. 13341-13348 (1982)). PKC activity was determined by the transfer of radio activity from the [γ-^32 P] adenosine triphosphate (ATP) to H1 histone derived from calf thymus in the presence of 20 mM Tris-HCl buffer (pH 7.5), H1 histone derived from calf thymus (200 μg/ml), 10 μM [γ-^32P]ATP, 5 mM magnesium acetate, 8 μg/ml phosphatidyl serine, 2 μg/ml diacylglycerol and 0.3 mM Ca^2+. The test compound was dissolved in dimethylformamide, and the test compound solution was added to the assay system so that the final concentration thereof was adjusted to 0.8%. The reaction mixture was incubated at 30° C. for 30 minutes, and the reaction was quenched with 25% trichloroacetic acid. The acid-insoluble protein was collected on a nitrocellulose membrane by suction filtration. The radio activity of ^32 P was determined by scintillation counter. The PKC inhibitory activity of the test compounds was expressed by IC50, which is a concentration of the test compound to be required to reduce the PKC activity by 50%.

Experiment [3] in a line: Phorbol Ester (TPA)-induced Mouse Auricle Edema, Acanthosis Model. It counts as in vivo. The conditions noted are these: mouse (ICR); for increase in the thickness of auricle: after 24 hours, control 215±40 μm, mean±s.e. The procedure:
(5) Phorbol Ester (TPA)-induced Mouse Auricle Edema, Acanthosis Model
A 200 μg/ml phorbol ester (TPA) (10 μl) was applied to the one side to the ear of a female mouse (ICR). Twenty-four hours later, the thickness of the auricle of the mouse was determined with using a dialthickness gage, and the increase in the thickness of auricle was calculated. A test compound was dissolved in acetone, and the solution of a test compound was applied to the both sides of the ear 30 minutes before the application of TPA.
The compound of Example 88 was applied to the ear at a dose of 20 μl of 0.3% or 1% solution. The increase in the thickness of auricle in the control group is 215±40 μm (mean±s.e.) after 24 hours, while 87±53 μm (mean±s.e.) in the group treated with the compound of Example 88 in 0.3%, and 67±23 μm (mean±s.e.) in the group treated with the compound of Example 88 in 1%.

A short description of experiment [4]: Mouse Atopic Dermatitis Model (TNCB-induced increase in auricle thickness). The conditions noted are these: mice (Balb/c), once a day for two weeks. The experiment is classed as in vivo. The procedure: (6) Mouse Atopic Dermatitis Model:
1% […] (TNCB), (10 μl) was applied to each side of the ear of female mice (Balb/c), once every two days for 24 days. Twenty-four days later, the mice were grouped, and the auricle thickness of the mouse was determined by using a dial thickness gage, and the increase in the thickness of auricle was calculated. The compounds of Examples 88 and 89 were dissolved in acetone in a concentration of 1%. The compound of Example 182 was dissolved in a mixture of acetone:methanol in a concentration of 0.75%. Twenty-four days after the beginning of the experiment, the solution of a test compound was applied to each side of the ear 30 minutes before and after the application of TNCB, once a day for two weeks.

The subject of experiment [5] is anti-DNA antibody. The experiment in a line: Mouse cGVHD (chronic graft-versus-host disease model), anti-DNA antibody in blood by ELISA. The conditions noted are these: mice; for amount of anti-DNA antibody in the blood: mean±s.e. It counts as in vivo. The procedure:
(3) Mouse cGVHD (chromic Graft-versus-host disease model)
Female mice (DBA/2NCrj) were subjected to an operation of cervical vertebra dislocation, and the spleen was taken out to give the spleen cells preparation. The preparation were adjusted to 37.5×10^7 cells/ml, and administered to the BDF1 female mice on the tail vein at a dose of 200 μl per a mouse. Two weeks later, the blood was collected in the absence of heparin, and anti-DNA antibody therein was determined by ELISA.
The compound of Example 182 was administered orally to the mice at a dose of 30 to 50 mg/kg once a day for two weeks, and the effect of the test compound on cGVHD was determined.
The amount of anti-DNA antibody in the blood was determined with OD405. The amounts of anti-DNA antibody were 0.348±0.111 (mean±s.e.) in the control group, 0.255±0.062 (mean±s.e.) in the group treated with the compound of Example 182 at a dose of 30 mg/kg, and 0.094±0.026 (mean±s.e.) in the group treated with the compound of Example 182 at a dose of 50 mg/kg.
Further, the compound of Example 100 was also administered orally to the mice at 30 mg/kg once a day for two weeks, and the effect of the compound on cGVHD was also determined.
The amount of anti-DNA antibody in the blood was determined with OD405. The amounts of anti-DNA antibody were 0.258±0.084 (mean±s.e.) in the control group, and 0.177±0.061 (mean±s.e.) in the group treated with the compound of Example 100 at a dose of 30 mg/kg.
In general terms: In an ELISA, binding on a coated surface is turned into a signal by an enzyme label.

The nature of experiment [6]: Mouse Collagen Arthritis. The conditions noted are these: orally once a day. It counts as in vivo. As to the method: (2) Mouse Collagen Arthritis
Bovine II-type collagen (provided by Collagen Gijyutsu Kensyukai) (0.1%) was emulsified with Complete Fleund's adjuvant (CFA) (50%) (manufactured by DIFCO, Ltd.), and the emulsion thus obtained was injected intracutaneously to mice at the tail (primary sensitization). Three weeks later, bovine II-type collagen (0.1%) was injected intraperitoneally again to the mice (secondary sensitization). Three weeks later, the swelling of limbs of the mice was observed, and evaluated by four-degree as 0 to 3 each limb. The degree (0 to 3) each limb was added, and the results were used a score of the arthritis. That is, the maximum degree is 12 (degree 3×4 limb). The test compound was administered orally to the mice once a day, which started after two weeks from the primary sensitization.

pIC50: −log10 of the molar value.

Usually pIC50 stands for the negative decadic logarithm of the IC50, by convention in mol/L. High values mean a small IC50, low ones a large IC50. Regarding `CN1CCN(CC2CN(C(=O)/C=C/C(=O)c3ccc(OCC(=O)Nc4nc5ccccc5s4)c(F)c3)CCO2)CC1` (stereo not shown) [Example 71], in experiment [1] (i.v. 3 mg/kg 5 minutes before the ischemic, 24 hours later), the “amounts of both of creatine and urea nitrogen compared with the control group” value (from here on “amounts … compared with the control group”) was “significantly reduced”. Further, the “amount of creatine in the blood” value in experiment [1] (i.v. 3 mg/kg 5 minutes before the ischemic, 24 hours later, control 2.19±0.21, mean±s.e.) is reported as 1.4±0.11. Besides, the “amount of urea nitrogen in the blood” value in experiment [1] (i.v. 3 mg/kg 5 minutes before the ischemic, 24 hours later, control 78.8±5.6, mean±s.e.) worked out at 54.1±5.0. The pIC50 in experiment [2] was 6.10.

In the case of `COc1cc(C(=O)/C=C/C(=O)N2CCC(N3CCN(C)CC3)CC2)ccc1OCC(=O)Nc1nc2ccccc2s1` [Example 88], the “increase in auricle thickness compared with the control group” value in experiment [3] (topical 20 μl of 0.3% or 1% solution) was “significantly reduced”. Besides, the “increase in the thickness of auricle” value in experiment [3] (topical 20 μl of 0.3% solution) is listed as 87±53 μm; in experiment [3] (topical 20 μl of 1% solution), 67±23 μm. Further, in experiment [2], the negative logarithm of the IC50 (pIC50) is 7.00.

As for `COc1cc(C(=O)/C=C/C(=O)N2CCOC(CN3CCN(C)CC3)C2)ccc1OCC(=O)Nc1nc2ccccc2s1` (stereo not shown) [Example 89], the “amounts … compared with the control group” value in experiment [1] (i.v. 3 mg/kg 5 minutes before the ischemic and the re-perfusion, 48 hours later) is “significantly reduced”. In addition, in experiment [1] (i.v. 3 mg/kg 5 minutes before the ischemic and the re-perfusion, 48 hours later, control 4.31±0.53, mean±s.e.), the “amount of creatine in the blood” value is listed as 2.34±0.46. In experiment [1] (i.v. 3 mg/kg 5 minutes before the ischemic and the re-perfusion, 48 hours later, control 155.1±15.4, mean±s.e.), the “amount of urea nitrogen in the blood” value stood at 99.1±16.0. The same compound gave a pIC50 in experiment [2] of 6.52. Further, the “inhibition of the increase in the auricle thickness” value in experiment [4] (topical 1% in acetone) is on record as “about 25%”.

Regarding `COc1cc(C(=O)/C=C/C(=O)N2CCC(N3CCCN(C)CC3)CC2)ccc1OCC(=O)Nc1nc2ccccc2s1` [Example 100], the “amounts … compared with the control group” value in experiment [1] (orally 30 mg/kg one hour before the ischemic, 48 hours later) is “reduced”. In experiment [1] (orally 30 mg/kg one hour before the ischemic, 48 hours later, control 2.48±0.59, mean±s.e.), the “amount of creatine in the blood” value was determined as 1.53±0.20. Also, the “amount of urea nitrogen in the blood” value in experiment [1] (orally 30 mg/kg one hour before the ischemic, 48 hours later, control 91.3±20.1, mean±s.e.) is reported as 63.1±10.3. The compound further showed a negative logarithm of the IC50 (pIC50) in experiment [2] of 6.52. Moreover, the “anti-DNA antibody in the blood compared with the control group” value in experiment [5] (orally 30 mg/kg once a day for two weeks) is reported as “reduced the anti-DNA antibody in the blood”. Moreover, the “amount of anti-DNA antibody in the blood” value in experiment [5] (orally 30 mg/kg once a day for two weeks, control 0.258±0.084) worked out at 0.177±0.061 OD405.

Consider `O=C(COc1ccc(C(=O)/C=C/C(=O)N2CCN(O)CC2)cc1C(F)(F)F)Nc1nc2ccccc2s1` [Example 160], for which the “score of arthritis in comparison with the control mice” value (from here on “score of arthritis in comparison”) in experiment [6] (50 mg/kg) was “significantly reduced”. The pIC50 in experiment [2] is 6.22.

On to `COc1cc(OCC(=O)Nc2nc3ccccc3s2)ccc1C(=O)/C=C/C(=O)N1CCC(N2CCCN(C)CC2)CC1` [Example 182], for which the “score of arthritis in comparison” value in experiment [6] (30 to 50 mg/kg) is recorded as “significantly reduced”. Moreover, the pIC50 in experiment [2] was 7.10. Also, the “inhibition of the increase in the auricle thickness” value in experiment [4] (topical 0.75% in acetone:methanol) is listed as “about 25%”. Besides, the “amount of anti-DNA antibody in the blood” value in experiment [5] (orally 30 mg/kg once a day for two weeks, control 0.348±0.111) is recorded as 0.255±0.062 OD405; in experiment [5] (orally 50 mg/kg once a day for two weeks, control 0.348±0.111) it was 0.094±0.026 OD405. In addition, in experiment [5] (orally 30 to 50 mg/kg once a day for two weeks), the “anti-DNA antibody in the blood compared with the control group” value is “reduced the anti-DNA antibody in the blood dose-dependently”.

With `Cc1c(OCC(=O)Nc2nc3ccccc3s2)ccc(C(=O)/C=C/C(=O)N2CCC(N3CCCN(C)CC3)CC2)c1C` [Example 192], in experiment [6] (50 mg/kg), the “score of arthritis in comparison” value was “significantly reduced”. In addition, the negative logarithm of the IC50 (pIC50) in experiment [2] is 6.10.

With `Cc1cc(OCC(=O)Nc2nc3ccccc3s2)ccc1C(=O)/C=C/C(=O)N1CCC(N2CCCN(C)CC2)CC1` [Example 197], the “score of arthritis in comparison” value in experiment [6] (50 mg/kg) is reported as “significantly reduced”. Moreover, the pIC50 in experiment [2] was 6.52.
